# Test results from patent US5026836A, “6-sulfenamide, 6-sulfinamide and 6-sulfonamide purines, purine nucleosides, purine nucleotides, pharmaceutical compositions, and processes of making” (priority 1988, dated 1991).
# Entries after “also recorded” stand apart in the source; their conditions may differ.
# Columns and labels:
# L1210 cells = test: Bioassay of viable L1210 cells in brain after intracranial inoculation and ip drug; type: in vivo, mouse; details: for crossing of blood brain barrier / CNS penetration (words): mouse, in vivo
# Excerpt: BDF1 mice were inoculated intracranially on day 0 with 1×10^5 L1210 cells. […] 24 hr after drug delivery the brains were collected, homogenized, and injected ip into untreated mice. Each mouse received the equivalent of half a brain. Thereafter, life span was monitored and, using inoculum-response data as a base of comparison, estimates were made of the numbers of viable cells in treated and control brains.
# [1] = Solubility (maximum solubility); type: physicochemical
# [2] = Toxicity / maximum tolerated dosage in mice; type: in vivo
# Description: In Example N other compounds of the invention were tested against L1210 cells. […] Activity in Table 14-a is tabulated as both increases in life span and as cells surviving treatment and that in table 14-b as T/C.
# [3] = tested on: human mammary carcinoma MX-1; test: Human mammary carcinoma MX-1 tumor weight in nu/nu mice; type: in vivo; details: qd days 1,3,5,7,9,11; for Tumor wt, staging day (mean ± 1SD): before treatment (day 17 post implant); for Tumor wt, evaluation day (mean ± 1SD): day 15 of treatment; for δT/δC: ≤20% moderate activity
# Description: (§1) In this example Compound 19 was tested against reticulum cell sarcoma M5076. For this and certain other tests below, test results are shown as δT/δC. Utilizing this protocol the difference in tumor weight before treatment and after treatment of the treated animals compared to the control animals is determined.
# In Example P Compound 19 was tested against human mammary carcinoma MX-1.
# [4] = tested on: Human Colon Adenocarcinoma CX-1; test: Human Colon Adenocarcinoma CX-1 tumor weight in nu/nu mice; type: in vivo; details: for Tumor wt, staging day (mean ± 1SD): before treatment (day 33 post implant); for δT/δC: ≤20% active
# Description: as §1
# Compound 19 was further tested against Human Colon Adenocarcinoma CX-1. Activity against this tumor system is indicated at a δT/δC value of less than 20.
# Murine Glioma 261 = Murine Glioma 261 tumor weight in C57B1/6 mice; type: in vivo, mouse; details: qd days 1-9; for Attained tumor wt (Mean ± 1SD): day 10; for T/C (%): active at or below 42%
# Description: Compound 19 was also tested against Murine Glioma 261. In this test activity is indicated at levels of T/C below 42%. As is shown in Table 19, Compound 19 is active at various doses against this tumor system.
# [5] = tested on: human lung carcinoma LX-1; test: Activity against human lung carcinoma LX-1; details: in vivo
# [6] = Toxicity / maximum tolerated dosage in mice; type: in vivo; details: ip 104 mg/kg/inj, bid days 1,4,7; 11 CDF1 mice with Colon 26
# [7] = day 12, ip 138.4 mg/kg/inj, qd days 1,3,5,7,9
# [8] = day 12, ip 138.4 mg/kg/inj, qd days 1,4,7,10,13,16
# [9] = day 12, ip 173.0 mg/kg/inj, qd days 1,3,5,7
# [10] = day 15, ip 138.4 mg/kg/inj, qd days 1,3,5,7,9,11
# [11] = day 15, ip 138.4 mg/kg/inj, qd days 1,4,7,10,13
# [12] = day 16, ip 173.0 mg/kg/inj, qd days 1,3,5,7,9
# [13] = day 16, ip 173.0 mg/kg/inj, qd days 1,4,7,10
# [14] = day 17, ip 173.0 mg/kg/inj, qd days 1,4,7,10,13
smiles,measurement,setting,value
"Nc1nc([S+](N)[O-])c2ncn([C@@H]3O[C@H](CO)[C@@H](O)[C@H]3O)c2n1 (mixture of isomers) [Compound 19, 2-amino-9-β-D-ribofuranosyl-9H-purine-6-sulfinamide]",Residual cells (% of control brain),"L1210 cells; 24 hr after single ip dose (mg/kg): Methotrexate 12, Adriamycin 3, 6-Mercaptopurine 160, Cytosine Arabinoside 1200, Cyclophosphamide 140, Compound 19 173, Tiazofurin 1200, BCNU 20",7.9%
same,intracranial activity,L1210 cells; intracranial L1210,significant reduction in the number of neoplastic cells in the brain; also recorded: active intracranially
same,"cell/half brain day 2, cell number",L1210 cells; ip 173 mg/kg day 1,261016 cell/half brain
same,"cell/half brain day 2, log10",L1210 cells; ip 173 mg/kg day 1,5.42 log10
same,"change due to drug, cells","L1210 cells; ip 173 mg/kg day 1, vs control",-92.08%
same,"change due to drug, log10","L1210 cells; ip 173 mg/kg day 1, vs control",-1.10 log10
same,crossing of blood brain barrier / CNS penetration (words),L1210 cells,effectively cross the blood brain barrier
same,crossing of blood brain barrier / CNS penetration (words),L1210 cells; listed as 2-amino-9-β-D-ribofuranosyl-9H-purine-6-sulfinamide,able to penetrate the central nervous system; also recorded: penetrating the central nervous system
same,Maximum solubility (as dosage),[1],288 mg/kg
same,maximum solubility (as dose),[1],288 mg per kg
same,solubility relative to enantiomer B,[1],exhibits solubility characteristics of enantiomer B
same,water solubility,[1],water soluble
same,mice which died from drug toxicity,"[2]; ip 104 mg/kg/inj, bid days 1,4,7, L1210-inoculated BDF1 mice",1
same,toxicity (T/C column),"[2]; ip 288 mg/kg, qd day 1, L1210-inoculated BDF1 mice",TOX
same,mortality,"[2]; mouse, in vivo, 104 mg/kg, bid days 1,4,7, L1210-inoculated mice, read-out: toxic deaths per number of animals in test group (converted)",20%
same,"Tumor wt, staging day (mean ± 1SD)",[3]; ip 110.8 mg/kg/inj group,321 ± 132 mg
same,"Tumor wt, staging day (mean ± 1SD)",[3]; ip 138.4 mg/kg/inj group,330 ± 118 mg
same,"Tumor wt, staging day (mean ± 1SD)",[3]; ip 173.0 mg/kg/inj group,323 ± 127 mg
same,"Tumor wt, evaluation day (mean ± 1SD)",[3]; ip 110.8 mg/kg/inj,943 ± 297 mg
same,"Tumor wt, evaluation day (mean ± 1SD)",[3]; ip 138.4 mg/kg/inj,884 ± 415 mg
same,"Tumor wt, evaluation day (mean ± 1SD)",[3]; ip 173.0 mg/kg/inj,489 ± 104 mg
same,δT/δC,[3]; ip 110.8 mg/kg/inj,66.1%
same,δT/δC,[3]; ip 138.4 mg/kg/inj,58.9%
same,δT/δC,[3]; ip 173.0 mg/kg/inj,17.6%
same,"Tumor wt, staging day (mean ± 1SD)","[4]; ip 138.4 mg/kg/inj group, qd days 1,3,5,7,9",226 mg
same,"Tumor wt, staging day (mean ± 1SD)","[4]; ip 138.4 mg/kg/inj group, qd days 1,3,5,7,9,11",220 mg
same,"Tumor wt, staging day (mean ± 1SD)","[4]; ip 138.4 mg/kg/inj group, qd days 1,4,7,10,13",225 mg
same,"Tumor wt, staging day (mean ± 1SD)","[4]; ip 138.4 mg/kg/inj group, qd days 1,4,7,10,13,16",215 mg
same,"Tumor wt, staging day (mean ± 1SD)","[4]; ip 173.0 mg/kg/inj group, qd days 1,3,5,7",222 mg
same,"Tumor wt, staging day (mean ± 1SD)","[4]; ip 173.0 mg/kg/inj group, qd days 1,3,5,7,9",229 mg
same,"Tumor wt, staging day (mean ± 1SD)","[4]; ip 173.0 mg/kg/inj group, qd days 1,4,7,10",226 mg
same,"Tumor wt, staging day (mean ± 1SD)","[4]; ip 173.0 mg/kg/inj group, qd days 1,4,7,10,13",226 mg
same,"Tumor wt, evaluation day (mean ± 1SD)",[4]; [7],278 ± 114 mg
same,δT/δC,[4]; [7],25.0%
same,"Tumor wt, evaluation day (mean ± 1SD)",[4]; [8],296 ± 186 mg
same,δT/δC,[4]; [8],38.9%
same,"Tumor wt, evaluation day (mean ± 1SD)",[4]; [9],302 ± 144 mg
same,δT/δC,[4]; [9],38.5%
same,"Tumor wt, evaluation day (mean ± 1SD)",[4]; [10],358 ± 125 mg
same,δT/δC,[4]; [10],46.6%
same,"Tumor wt, evaluation day (mean ± 1SD)",[4]; [11],375 ± 155 mg
same,δT/δC,[4]; [11],50.7%
same,"Tumor wt, evaluation day (mean ± 1SD)",[4]; [12],364 ± 254 mg
same,δT/δC,[4]; [12],39.9%
same,"Tumor wt, evaluation day (mean ± 1SD)",[4]; [13],402 ± 187 mg
same,δT/δC,[4]; [13],52.1%
same,"Tumor wt, evaluation day (mean ± 1SD)",[4]; [14],279 ± 121 mg
same,δT/δC,[4]; [14],15.8%
same,Attained tumor wt (Mean ± 1SD),Murine Glioma 261; ip 22 mg/kg/inj,80 ± 130 mg
same,Attained tumor wt (Mean ± 1SD),Murine Glioma 261; ip 37 mg/kg/inj,119 ± 105 mg
same,Attained tumor wt (Mean ± 1SD),Murine Glioma 261; ip 62 mg/kg/inj,137 ± 124 mg
same,Attained tumor wt (Mean ± 1SD),Murine Glioma 261; ip 104 mg/kg/inj,5 ± 5 mg
same,T/C (%),Murine Glioma 261; ip 22 mg/kg/inj,22.9%
same,T/C (%),Murine Glioma 261; ip 37 mg/kg/inj,34.1%
same,T/C (%),Murine Glioma 261; ip 62 mg/kg/inj,39.3%
same,T/C (%),Murine Glioma 261; ip 104 mg/kg/inj,1.4%
same,activity against human lung carcinoma LX-1,[5],No activity
same,toxic deaths,[6],6
